{
  "source": "paper PMC9241686",
  "about": "(Microbiology Spectrum, 2022)",
  "key": {"HepG2 cells": {"test_system": "HepG2 cells", "test": "cells", "assay_type": "cell-based, human", "details": "72 h, CellTiter-Glo; for IC50: Homo sapiens, HepG2"}, "[1]": {"test_system": "extracellular M. tuberculosis", "test": "microbe, parasite or virus in culture", "assay_type": "cell-based", "details": "Mycobacterium tuberculosis"}, "[2]": {"test_system": "intracellular M. tuberculosis", "test": "microbe, parasite or virus in culture", "assay_type": "cell-based, Mycobacterium tuberculosis", "details": "for selectivity index (SI): cytotoxicity IC50 over intracellular M. tuberculosis IC50; for IC50: read-out: Intracellular TB IC50; for fold difference between extracellular and intracellular IC50: extracellular versus intracellular M. tuberculosis"}, "macrophages (RAW 264.7)": {"test_system": "macrophages (RAW 264.7)", "test": "cells", "assay_type": "cell-based, murine", "details": "RAW 264.7 infected macrophages, high-content assay, 72 h; for IC50: Mus musculus, RAW264.7, read-out: Macrophage IC50"}, "[3]": {"test_system": "extracellular M. tuberculosis", "test": "microbe, parasite or virus in culture", "assay_type": "cell-based, Mycobacterium tuberculosis"}, "[4]": {"details": "120 h, read-out: Extracellular TB IC50"}, "[5]": {"details": "M. tuberculosis in RAW 264.7, high-content assay, 72 h"}, "[6]": {"details": "Mycobacterium tuberculosis, RAW264.7, 72 h, M. tuberculosis in RAW 264.7, high-content assay, 72 h"}},
  "note": "Like-named read-outs stand apart in the source and are kept apart here.",
  "data": [
    {"molecule": "CCCc1nnc(NC(=S)Nc2ccccc2)s1", "note": "[Compound 21]", "values": [
      {"measurement": "IC50", "setting": "HepG2 cells", "result": "> 100", "unit": "µM"},
      {"measurement": "IC50", "setting": "[1]; [4]", "result": 14.5, "unit": "µM"},
      {"measurement": "selectivity index (SI)", "setting": "[2]", "result": "> 200"}
    ]},
    {"molecule": "CC(C)(C)c1nnc(NC(=S)Nc2ccccc2)s1", "note": "[Compound 22]", "values": [
      {"measurement": "IC50", "setting": "HepG2 cells", "result": "> 99", "unit": "µM"},
      {"measurement": "IC50", "setting": "[1]; [4]", "result": 11, "unit": "µM"},
      {"measurement": "IC50", "setting": "[1]; glucose as carbon source, read-out: Glucose IC50", "result": 11, "unit": "µM"},
      {"measurement": "IC50", "setting": "macrophages (RAW 264.7)", "result": "> 100", "unit": "µM"},
      {"measurement": "IC50", "setting": "[2]; [5]", "result": 0.51, "unit": "µM"},
      {"measurement": "IC50", "setting": "[2]; [6]", "result": "< 1", "unit": "µM"},
      {"measurement": "selectivity index (SI)", "setting": "[2]", "result": "> 200"},
      {"measurement": "fold difference between extracellular and intracellular IC50", "setting": "[2]", "result": "> 20", "unit": "fold"},
      {"measurement": "IC50", "setting": "[3]; Mycobacterium tuberculosis, 168 h, read-out: Cholesterol IC50", "result": 5.7, "unit": "µM"},
      {"measurement": "Fold-change", "setting": "[3]; glucose IC50 versus cholesterol IC50", "result": 1.9}
    ]},
    {"molecule": "FC(F)(F)c1cccc(NC(=S)Nc2cccnc2)c1", "note": "[Compound 23]", "values": [
      {"measurement": "IC50", "setting": "HepG2 cells", "result": 62, "unit": "µM"},
      {"measurement": "IC50", "setting": "[1]; [4]", "result": 125, "unit": "µM"},
      {"measurement": "IC50", "setting": "macrophages (RAW 264.7)", "result": 30, "unit": "µM"},
      {"measurement": "Macrophage IC50", "setting": "macrophages (RAW 264.7)", "result": "cytotoxicity to macrophages"}
    ]},
    {"molecule": "COc1ccc(NC(=S)Nc2ccc(Br)cc2)cc1", "note": "[Compound 24]", "values": [
      {"measurement": "IC50", "setting": "HepG2 cells", "result": "> 100", "unit": "µM"},
      {"measurement": "IC50", "setting": "[1]; [4]", "result": 16, "unit": "µM"},
      {"measurement": "IC50", "setting": "macrophages (RAW 264.7)", "result": 72, "unit": "µM"},
      {"measurement": "IC50", "setting": "[2]; [6]", "result": 2.1, "unit": "µM"},
      {"measurement": "fold increase in potency", "setting": "[2]; intracellular IC50, bromine replacing fluorine", "result": 5, "unit": "fold"}
    ]},
    {"molecule": "COc1cccc(NC(=S)Nc2cccc(C(F)(F)F)c2)c1", "note": "[Compound 25]", "values": [
      {"measurement": "IC50", "setting": "HepG2 cells", "result": 24, "unit": "µM"},
      {"measurement": "IC50", "setting": "[1]; [4]", "result": 63, "unit": "µM"},
      {"measurement": "IC50", "setting": "macrophages (RAW 264.7)", "result": 17, "unit": "µM"},
      {"measurement": "IC50", "setting": "[2]; [6]", "result": 9.6, "unit": "µM"}
    ]},
    {"molecule": "FC(F)(F)c1cccc(NC(=S)NCCc2ccc(Cl)cc2)c1", "note": "[Compound 26]", "values": [
      {"measurement": "IC50", "setting": "HepG2 cells", "result": 23, "unit": "µM"},
      {"measurement": "IC50", "setting": "[1]; [4]", "result": 30, "unit": "µM"},
      {"measurement": "IC50", "setting": "macrophages (RAW 264.7)", "result": 9.3, "unit": "µM"}
    ]},
    {"molecule": "O=C(NC(=S)Nc1ccc2oc(-c3ccccc3)nc2c1)c1ccccc1", "note": "[Compound 27]", "values": [
      {"measurement": "IC50", "setting": "HepG2 cells", "result": "> 100", "unit": "µM"},
      {"measurement": "IC50", "setting": "[1]; [4]", "result": "> 200", "unit": "µM"},
      {"measurement": "IC50", "setting": "macrophages (RAW 264.7)", "result": 80, "unit": "µM"},
      {"measurement": "selectivity index (SI)", "setting": "[2]", "result": "> 200"},
      {"measurement": "fold difference between extracellular and intracellular IC50", "setting": "[2]", "result": "> 500", "unit": "fold"}
    ]},
    {"molecule": "COc1ccc(C(F)(F)F)cc1NC(=O)Nc1cccc(Cl)c1", "note": "[Compound 28]", "values": [
      {"measurement": "IC50", "setting": "HepG2 cells", "result": 12, "unit": "µM"},
      {"measurement": "IC50", "setting": "[1]; [4]", "result": 25, "unit": "µM"},
      {"measurement": "IC50", "setting": "macrophages (RAW 264.7)", "result": 3, "unit": "µM"}
    ]},
    {"molecule": "COc1ccc2nc(NC(=O)Nc3ccc(Cl)cc3)sc2c1", "note": "[Compound 29]", "values": [
      {"measurement": "IC50", "setting": "HepG2 cells", "result": "> 100", "unit": "µM"},
      {"measurement": "IC50", "setting": "[1]; [4]", "result": "> 200", "unit": "µM"},
      {"measurement": "IC50", "setting": "macrophages (RAW 264.7)", "result": 56, "unit": "µM"}
    ]},
    {"molecule": "COc1ccc(NC(=O)Nc2nc3ccccc3s2)cc1", "note": "[Compound 30]", "values": [
      {"measurement": "IC50", "setting": "HepG2 cells", "result": 54, "unit": "µM"},
      {"measurement": "IC50", "setting": "[1]; [4]", "result": "> 200", "unit": "µM"},
      {"measurement": "IC50", "setting": "macrophages (RAW 264.7)", "result": 52, "unit": "µM"}
    ]},
    {"molecule": "CNC(=O)Nc1ccc(Br)cc1", "note": "[Compound 31]", "values": [
      {"measurement": "IC50", "setting": "HepG2 cells", "result": "> 100", "unit": "µM"},
      {"measurement": "IC50", "setting": "[1]; [4]", "result": "> 200", "unit": "µM"},
      {"measurement": "IC50", "setting": "macrophages (RAW 264.7)", "result": "> 100", "unit": "µM"},
      {"measurement": "IC50", "setting": "[2]; [6]", "result": 64, "unit": "µM"}
    ]},
    {"molecule": "O=C(Nc1ccccc1)Nc1ccc(Cl)cc1", "note": "[Compound 33]", "values": [
      {"measurement": "IC50", "setting": "HepG2 cells", "result": "> 100", "unit": "µM"},
      {"measurement": "IC50", "setting": "[1]; [4]", "result": "> 200", "unit": "µM"},
      {"measurement": "IC50", "setting": "macrophages (RAW 264.7)", "result": "> 100", "unit": "µM"},
      {"measurement": "IC50", "setting": "[2]; [6]", "result": "> 100", "unit": "µM"}
    ]},
    {"molecule": "CC(C)(C)c1nnc(NC(=O)Nc2ccc(Cl)cc2)s1", "note": "[Compound 34]", "values": [
      {"measurement": "IC50", "setting": "HepG2 cells", "result": "> 100", "unit": "µM"},
      {"measurement": "IC50", "setting": "[1]; [4]", "result": "> 200", "unit": "µM"},
      {"measurement": "IC50", "setting": "macrophages (RAW 264.7)", "result": "> 100", "unit": "µM"},
      {"measurement": "Intracellular TB IC50", "setting": "[2]; [5]", "result": "lost activity"},
      {"measurement": "IC50", "setting": "[2]; [6]", "result": 84, "unit": "µM"}
    ]},
    {"molecule": "O=C(Nc1cccc(Cl)c1)NC1CCCCC1", "note": "[Compound 35]", "values": [
      {"measurement": "HepG2 IC50", "setting": "HepG2 cells", "result": "no cytotoxicity"},
      {"measurement": "IC50", "setting": "HepG2 cells", "result": "> 100", "unit": "µM"},
      {"measurement": "IC50", "setting": "[1]; [4]", "result": 28, "unit": "µM"},
      {"measurement": "IC50", "setting": "macrophages (RAW 264.7)", "result": "> 100", "unit": "µM"},
      {"measurement": "IC50", "setting": "[2]; [6]", "result": 4.5, "unit": "µM"}
    ]},
    {"molecule": "Cc1nnc(NC(=O)Nc2ccccc2)s1", "note": "[Compound 36]", "values": [
      {"measurement": "IC50", "setting": "HepG2 cells", "result": "> 100", "unit": "µM"},
      {"measurement": "IC50", "setting": "[1]; [4]", "result": "> 200", "unit": "µM"},
      {"measurement": "IC50", "setting": "macrophages (RAW 264.7)", "result": "> 100", "unit": "µM"},
      {"measurement": "IC50", "setting": "[2]; [6]", "result": "> 100", "unit": "µM"}
    ]},
    {"molecule": "COc1cc(NC(=S)Nc2ccc(C(F)(F)F)cc2)cc(OC)c1", "note": "[Compound 37]", "values": [
      {"measurement": "IC50", "setting": "HepG2 cells", "result": 49, "unit": "µM"},
      {"measurement": "IC50", "setting": "[1]; [4]", "result": "> 200", "unit": "µM"},
      {"measurement": "IC50", "setting": "macrophages (RAW 264.7)", "result": 29, "unit": "µM"}
    ]},
    {"molecule": "CC(C)c1ccc(NC(=O)Nc2ccccc2)cc1", "note": "[Compound 38]", "values": [
      {"measurement": "IC50", "setting": "HepG2 cells", "result": 55, "unit": "µM"},
      {"measurement": "IC50", "setting": "[1]; [4]", "result": "> 200", "unit": "µM"},
      {"measurement": "IC50", "setting": "macrophages (RAW 264.7)", "result": 85, "unit": "µM"},
      {"measurement": "IC50", "setting": "[2]; [6]", "result": "> 100", "unit": "µM"}
    ]},
    {"molecule": "N#Cc1ccc(NC(=O)Nc2ccc(Cl)cc2)cc1", "note": "[Compound 39]", "values": [
      {"measurement": "IC50", "setting": "HepG2 cells", "result": 6.5, "unit": "µM"},
      {"measurement": "IC50", "setting": "[1]; [4]", "result": 11, "unit": "µM"},
      {"measurement": "IC50", "setting": "macrophages (RAW 264.7)", "result": 3, "unit": "µM"}
    ]},
    {"molecule": "COc1cccc(NC(=O)Nc2ccc(C(F)(F)F)cc2)c1", "note": "[Compound 40]", "values": [
      {"measurement": "IC50", "setting": "HepG2 cells", "result": 11, "unit": "µM"},
      {"measurement": "IC50", "setting": "[1]; [4]", "result": 31, "unit": "µM"},
      {"measurement": "IC50", "setting": "macrophages (RAW 264.7)", "result": 5.2, "unit": "µM"}
    ]}
  ]
}
